The test system of data set [1] is HCV genotype 1b replicon (Huh5-2 cells). The data set can be described thus: Drug-drug interaction with daclatasvir in Huh5-2 replicon cells (F-Luc activity). Type of data set: cell-based, Hepatitis C virus. Here is the method:
Next, we investigated the effect of compound 26 in the presence of daclatasvir (DCV) in Huh5-2 replicon cells. […] It is worth noting that NS5A is a very flexible protein and can attain different conformations (open conformer and closed conformer PDB ID: 1ZH1, 3FQM, respectively); thus, there is the potential for different binding modes of daclatasvir and our molecules, at the active center of the NS5A protein, leading to synergism.
The coefficient of Drug interactions (CDI) is calculated as follows: CDI = AB / (A × B), where AB is the ratio of the combination groups to the control group; A or B is the ratio of the single-agent group to the control group.
Figure 4 Synergistic anti-HCV activity of compound 26 with daclatasvir (DCV). Huh5-2 cells were treated with 30 pM or […] of DCV was used to in the presence or absence of the analog. F-Luc activity was quantified as relative light units (RLU) per μg of total protein. Values derived from cells treated with the solvent DMSO (control—C) were set to 100%. CDI: coefficient of drug interaction. Bars show mean values derived from three independent experiments in triplicate. Error bars denote standard deviation (SD). TEXT PRINTED IN THE PICTURE: 26 + DCV: CDI: 0,68 (DCV 15 pM - Comp. 26 25 pM); CDI: 0,70 (DCV 30 pM - Comp. 26 50 pM)

A short description of data set [2]: Cytotoxicity by intracellular ATP levels. As to conditions: human, Huh5-2 cells, read-out: HCV Replicon 1b CC50. The format is cell-based. Here is the method: (§1) The HCV RNA replication inhibitory effect of the novel compounds and their impact on cell viability was tested in the stable cell line Huh5-2 carrying an HCV subgenomic reporter replicon of genotype 1b (strain Con1). The viral replication level was measured in terms of the activity of the co-expressed firefly luciferase (F-Luc). Several concentrations of the tested compounds were prepared in a cell culture medium and were used to treat the cells for 72 h. The solvent DMSO was added as a control with a final concentration of 0.2% so as not to impact viral replication (data not shown). First, different compound concentrations of up to 100 μM were evaluated for their effect on cell viability; results are reported as the median cytotoxic concentration (CC50). Next, all compounds were screened for their anti-HCV activity at a concentration of 1 µM, and compounds showing ≥50% activity were further tested in several concentrations to calculate the median effective concentration (EC50) values (Table 1 and Table 2). The anti-HCV activity of the analogs 1–32 was estimated by quantifying luciferase activity resulting from viral replication. Cytotoxicity was determined by measuring the intracellular levels of ATP. The selectivity index (SI50) was calculated as the ratio of CC50 to EC50 and was calculated as an indication of the compounds’ safety. We used daclatasvir as a positive control.
(§2) Cells were treated with serial dilutions of the test compounds or the solvent DMSO for 72 h. Antiviral activity and cytotoxicity were determined by measuring virus-derived luciferase activity or intracellular ATP levels, respectively. The median effective concentration (EC50) of the compounds, reducing luciferase signal by 50%, and their median cytotoxic concentration (CC50), causing 50% cell death, were determined by nonlinear regression analysis using the Prism 6.0 software (GraphPad Software Inc.). Daclatasvir was kindly provided by Dr. Marc Windisch (Institut Pasteur Korea).
ATP was measured using the ViaLight HS BioAssay kit (Lonza) according to the manufacturer’s protocol in a GloMax 20/20 single-tube luminometer (Promega) for 1 s. Values were normalized to total protein amounts.
A general note: Replicon systems follow genome replication, usually without infectious particles.

The subject of data set [3] is HCV subgenomic replicon of genotype 4a (strain ED43). The data set can be described thus: Anti-HCV 4a activity, replicon assay in Huh7.5-4a cells. Type of data set: cell-based. As to conditions: Hepatitis C virus, read-out: EC50 GT 4a. The source says: (§3) Compound 26, showing the highest activity on genotype 1b was further tested against HCV 3a and 4a replicons. The fact that genotype 4 is highly heterogeneous, of less response to DAAs, and the most prevalent genotype in Egypt, made this genotype of specific interest. Moreover, genotype 3 is the most difficult to treat genotype using DAAs, especially in patients with liver cirrhosis. Specifically, Huh7.5-3a and Huh7.5-4a stable cell lines having HCV subgenomic replicons of genotypes 3a (strain S52) and 4a (strain ED43), respectively, were treated with different concentrations of compound 26. […] Further structural optimization is required, and testing compound 26 in combination with other DAAs could improve the clinical outcome.
The stable replicon cell line Huh5-2 (genotype 1b; Con1) (kindly provided by R. Bartenschlager, Heidelberg University, Germany) has been described previously. […]
(§4) Cells were treated with serial dilutions of the test compounds or the solvent DMSO for 72 h. Antiviral activity and cytotoxicity were determined by measuring virus-derived luciferase activity or intracellular ATP levels, respectively. […]
(§5) Firefly luciferase activity was measured using Luciferase Assay System (Promega), according to the manufacturer’s instructions. […] Values were normalized to total protein amounts as quantified by Bradford assay (Pierce).

The test system of data set [4] is HCV subgenomic replicon of genotype 3a (strain S52). The data set can be described thus: Anti-HCV 3a activity, replicon assay in Huh7.5-3a cells. The format is cell-based, Hepatitis C virus. Conditions: for pEC50: Hepatitis C virus, read-out: EC50 GT 3a.
Description: as §3
(§6) The stable replicon cell line Huh5-2 (genotype 1b; Con1) (kindly provided by R. Bartenschlager, Heidelberg University, Germany) has been described previously. The stable cell lines Huh7.5-3a and Huh7.5-4a have been constructed with the subgenomic reporter replicons of HCV 3a (S52) S52-SG(Feo)(AII) and HCV 4a (ED43) ED43-SG(Feo)(VYG) (kindly provided by C.M. Rice, The Rockefeller University, NY). Cells were cultured in high glucose (25 mM) Dulbecco’s modified minimal essential medium (Invitrogen), supplemented with 2 mM L-glutamine, 0.1 mM non-essential amino acids, 100 U/mL penicillin, 100 µg/mL streptomycin, and 10% (v/v) fetal calf serum (referred to as complete DMEM). Complete DMEM was supplemented with G418 at 500 μg/mL for Huh5-2, 750 μg/mL for Huh7.5-3a, and 350 μg/mL for Huh7.5-4a.
as §4, §5

Data set [5] relates to HCV subgenomic reporter replicon of genotype 1b (strain Con1). The data set can be described thus: Anti-HCV 1b activity, luciferase reporter replicon assay in Huh5-2 cells. The format is cell-based, Hepatitis C virus. As to conditions: for pEC50: Hepatitis C virus. Here is the method:
as §1, §6, §2
Firefly luciferase activity was measured using Luciferase Assay System (Promega), according to the manufacturer’s instructions. Measurements were performed with a GloMax 20/20 single tube luminometer (Promega) for 10 s. Values were normalized to total protein amounts as quantified by Bradford assay (Pierce).
A general note: In a reporter assay the amount or activity of a reporter protein is the signal.

Another data set has as its system HCV 1b RNA. The data set can be described thus: Quantification of (+) strand HCV RNA by RT-qPCR in Huh5-2 cells. The format is cell-based. Conditions: Hepatitis C virus, Huh-5-2, normalized to YWHAZ. Here is the method:
The HCV RNA and NS5A protein levels were determined in cells treated with compound 26 using reverse transcription-quantitative polymerase chain reaction (RT-qPCR) or Western blot analysis, respectively (Figure 5A).
Total RNA was extracted from Huh5-2 cells with Nucleozol reagent (Macherey-Nagel), according to the manufacturer’s instructions, and used to perform reverse-transcription (RT) and quantitative real-time polymerase chain reaction (qPCR) for replicon RNA. RT was performed using Moloney Murine Leukemia Virus (MMLV) reverse transcriptase (Promega) and reverse primers specific for Con1 IRES (5’-[…]-3’) and the housekeeping gene YWHAZ (5’- […]-3’). For qPCR, primers specific for the Con1 IRES (forward: 5’-[…]-3’and reverse: 5’-[…]-3’) and KAPA SYBR FAST qPCR Master Mix (Kapa Biosystems) were used. YWHAZ mRNA was used as a normalization control (forward: 5’-[…]-3’ and reverse: 5’- […]-3’).
Figure 5 Anti-HCV activity of compound 26 at the level of viral RNA and protein. Different concentrations of compound 26, or the solvent DMSO (control—C), were used to treat Huh5-2 cells. (A) Quantification of (+) strand HCV RNA by RT-qPCR. Values are expressed as a percentage of those obtained from control cells. mRNA levels of the housekeeping gene 14-3-3-zeta polypeptide (YWHAZ) were used for normalization. (B) (Top) Western blot analysis for NS5A. β-actin was used as a loading control. […]
On the technique in general: In qPCR the cycle at which signal appears reflects the starting amount.

pEC50: −log10 of the molar value. Where two headings read alike, the source gives them in different places.

Results on two compounds are retold here after paper PMC8064491, “Design and Synthesis of Novel Symmetric Fluorene-2,7-Diamine Derivatives as Potent Hepatitis C Virus Inhibitors” (Pharmaceuticals, 2021).

In the case of `CCOC(=O)N[C@@H](C(=O)N1CCC[C@H]1C(=O)Nc1ccc2c(c1)Cc1cc(NC(=O)[C@@H]3CCCN3C(=O)[C@H](NC(=O)OCC)c3ccccc3)ccc1-2)c1ccccc1` [Compound 26, Diethyl((1R,1’R)-((2S,2’S)-(((9H-fluorene-2,7-diyl)bis(azanediyl))bis(carbonyl))bis(pyrrolidine-2,1-diyl))bis(2-oxo-1-phenylethane-2,1-diyl))dicarbamate], the CDI in data set [1] (DCV 15 pM - Comp. 26 25 pM) is 0,68; in data set [1] (DCV 30 pM - Comp. 26 50 pM) it was 0,70. Also, the “coefficient of drug interaction (CDI)” value in data set [1] (compound 26 with daclatasvir, CDI <1 synergistic) is on record as “≈ 0.7”. Further, the CC50 at 72 h in data set [2] is over 100000 nM. For the same compound, the pEC50 was 6.93 in data set [3]; 8.92 in data set [4]; 10.44 in data set [5] (Huh-5-2, 72 h, read-out: HCV Replicon 1b EC50); 10.40 in data set [5] (Huh-5-2, read-out: EC50 against HCV genotype 1b); 10.52 with HCV 1b RNA. Moreover, the “effect on GT 3a relative to daclatasvir” value in data set [4] (EC50 ratio) is “seven-fold higher”. The “fold more active than S counterparts” value in data set [5] (25 vs 21, 26 vs 22, HCV 1b EC50 ratio) was 200 fold. The “selectivity index relative to daclatasvir” value in data set [5] (SI50 ratio) is listed as “four-fold better”.

In the case of `COC(=O)N[C@H](C(=O)N1CCC[C@H]1c1nc(-c2ccc(-c3ccc(-c4c[nH]c([C@@H]5CCCN5C(=O)[C@@H](NC(=O)OC)C(C)C)n4)cc3)cc2)c[nH]1)C(C)C` [Daclatasvir, reference compound], the CC50 at 72 h in data set [2] came to 17700 nM. The pEC50 is 8.08 in data set [4] (Huh7.5-3a cells) and 10.57 in data set [5] (Huh-5-2, Huh5-2 cells, 72 h, luciferase activity, read-out: HCV Replicon 1b EC50). The “HCV Replicon 1b SI50” value in data set [5] (SI50 = CC50/EC50) is 655,556.

The term CC50 denotes the concentration giving 50% cytotoxicity. A word on the pEC50: it is −log10 of the EC50, conventionally taken in molar units.
